The data set has as its target SNHG14. Particulars: ASO.
Setting [1] is: Mouse Primary Neuronal Cell, 0.005 µM.

We go through 72 sequences from the OligoGym collection.

After the bases stand the sugars from the 5' end (letter, count) and the backbone: PS all phosphorothioate, else s phosphorothioate and o phosphodiester by linkage. Methylation of C is not given here. l = locked nucleic acid (LNA); d = 2'-deoxy (DNA)

On to TCTCTAATCCTATTCC (sugars l4 d10 l2, PS), for which the target mRNA inhibition (Human Neuronal Cell, 0.2 µM) is 53% and the target mRNA inhibition (Human Neuronal Cell, 1 µM) came out at 58%.

As for CTCTACAACAGTCCCA (sugars l3 d11 l2, PS), the target mRNA inhibition amounted to 53% (Human Neuronal Cell, 0.2 µM) and 51% (Human Neuronal Cell, 1 µM).

In the case of “CCATTATTTCTTAAATA (sugars l4 d11 l2, PS)”, the target mRNA inhibition by setting is: (Human Neuronal Cell, 0.2 µM) -8%; (Human Neuronal Cell, 1 µM) 8%.

“AGCAACATTATTAACCAC (sugars l2 d1 l1 d9 l5, PS)”: the target mRNA inhibition (Human Neuronal Cell, 7.5 µM) amounted to 61%.

Turning to AAACTACCCTGCACAA (sugars l3 d10 l3, PS), the target mRNA inhibition was found to be 22% (Human Neuronal Cell, 0.2 µM) and 39% (Human Neuronal Cell, 1 µM).

On to “CCTACATCTCATACTTGC (sugars l2 d13 l3, PS)”, for which the target mRNA inhibition under setting [1] came to 96.8%.

With “TTTCCATTTATTTCCATTTA (sugars lddlddlddddddddlddll, PS)”, under “Human Neuronal Cell, 7.5 µM”, the target mRNA inhibition turned out to be 61%.

For CTGCTTAATTATATCA (sugars l4 d10 l2, PS), the target mRNA inhibition reads like this: (Human Neuronal Cell, 0.2 µM) 35%; (Human Neuronal Cell, 1 µM) 38%.

In the case of “TTTATTTCCATTTATTTTCA (sugars lddddldddddddldlddll, PS)”, the target mRNA inhibition (Human Neuronal Cell, 7.5 µM) was 46%.

As to “TACTCTGCAATACACC (sugars l1 d2 l2 d9 l2, PS)”, the target mRNA inhibition (Human Neuronal Cell, 7.5 µM) was found to be 65%.

Regarding TACATCTCATACTTGC (sugars l3 d10 l3, PS), the target mRNA inhibition by setting is: (Human Neuronal Cell, 0.2 µM) 4%; (Human Neuronal Cell, 1 µM) -2%; (Human Neuronal Cell, 5 µM) 12%; under setting [1], 97.4%.

Consider “CTTTCCATTTATTTCCATT (sugars llddldddddddddlddll, PS)”, for which the target mRNA inhibition (Human Neuronal Cell, 7.5 µM) stood at 61%.

In the case of “ACATGTCCCTTTATATT (sugars l2 d13 l2, PS)”, the target mRNA inhibition was -12% (Human Neuronal Cell, 0.2 µM); 8% (Human Neuronal Cell, 1 µM); 21% (Human Neuronal Cell, 5 µM); 85.2% under setting [1].

For “TTATACCTTTCTTTAACCCT (sugars ldldddldddddddddddll, PS)”, the target mRNA inhibition (Human Neuronal Cell, 7.5 µM) is 64%.

Regarding “CCTTCCCTTTGATAACA (sugars l2 d12 l3, PS)”, the target mRNA inhibition reads like this: (Human Neuronal Cell, 0.2 µM) 43%; (Human Neuronal Cell, 1 µM) 62%.

For the sequence “GAAAATCTCAACTACCATT (sugars ldllldddddddlddllll, PS)”, the target mRNA inhibition (Human Neuronal Cell, 7.5 µM) was 57%.

On to CTCTGCAATACACCAA (sugars l2 d10 l4, PS), for which the target mRNA inhibition runs as follows: (Human Neuronal Cell, 0.2 µM) 54%; (Human Neuronal Cell, 1 µM) 55%.

In the case of TCCTATGTTAATACTT (sugars l3 d10 l3, PS), the target mRNA inhibition was 14% (Human Neuronal Cell, 0.2 µM) and 34% (Human Neuronal Cell, 1 µM).

TACATATTGTACTTCT (sugars l4 d10 l2, PS): the target mRNA inhibition by setting is: (Human Neuronal Cell, 0.2 µM) 18%; (Human Neuronal Cell, 1 µM) 23%.

As for “TACATCTCATACTTGCT (sugars l2 d13 l2, PS)”, the target mRNA inhibition (Human Neuronal Cell, 0.2 µM) stood at 9%; the target mRNA inhibition (Human Neuronal Cell, 1 µM) worked out at 23%; the target mRNA inhibition (Human Neuronal Cell, 5 µM) was -10%; the target mRNA inhibition under setting [1] worked out at 84.5%.

With “ACTGTTTATACCCTTTC (sugars ldddlddddddddldll, PS)”, for the setting “Human Neuronal Cell, 7.5 µM”, the target mRNA inhibition was 55%.

Consider “CTCAAAGATCATTCTCA (sugars l3 d10 l1 d1 l2, PS)”, for which the target mRNA inhibition (Human Neuronal Cell, 7.5 µM) came out at 61%.

In the case of ACCTACATCTCATACT (sugars l2 d12 l2, PS), the target mRNA inhibition runs as follows: (Human Neuronal Cell, 0.2 µM) -16%; (Human Neuronal Cell, 1 µM) 8%; (Human Neuronal Cell, 5 µM) 0%; under setting [1], 85.7%.

Regarding “AGTTCTACTATACTTTCC (sugars l1 d4 l1 d10 l2, PS)”, for the setting “Human Neuronal Cell, 7.5 µM”, the target mRNA inhibition was 49%.

Regarding “TTTTTTTCTTACTATCTTCA (sugars l2 d3 l1 d12 l2, PS)”, for the setting “Human Neuronal Cell, 7.5 µM”, the target mRNA inhibition is 14%.

Regarding “GCACATTCTTTCTATAC (sugars l1 d1 l3 d9 l3, PS)”, under “Human Neuronal Cell, 7.5 µM”, the target mRNA inhibition was 50%.

As for TAAGCTCCATATTTAA (sugars l3 d10 l3, PS), the target mRNA inhibition was found to be 3% (Human Neuronal Cell, 0.2 µM) and 12% (Human Neuronal Cell, 1 µM).

Regarding “TTCTACTATACTTTCCTCT (sugars ldldddddddddddlddll, PS)”, for the setting “Human Neuronal Cell, 7.5 µM”, the target mRNA inhibition was 59%.

Turning to “TTCTGTATACACCATCC (sugars l1 d14 l2, PS)”, under “Human Neuronal Cell, 7.5 µM”, the target mRNA inhibition was determined as 46%.

In the case of “GTTTCCATCTACTATTAAT (sugars l1 d2 l2 d12 l2, PS)”, the target mRNA inhibition (Human Neuronal Cell, 7.5 µM) was found to be 62%.

With “CTTCACACCTATTATATA (sugars l2 d12 l4, PS)”, the target mRNA inhibition is, setting by setting: (Human Neuronal Cell, 0.2 µM) 7%; (Human Neuronal Cell, 1 µM) 32%.

In the case of “TCCATTTATTTCCATTTATT (sugars ldlldddddddddlddddll, PS)”, for the setting “Human Neuronal Cell, 7.5 µM”, the target mRNA inhibition came to 46%.

Turning to “TTTATTTCCATTTATTTTC (sugars lllddldddddddllldll, PS)”, where the note is “Human Neuronal Cell, 7.5 µM”, the target mRNA inhibition is 51%.

For the sequence AACTCTCACTGTAACT (sugars l4 d10 l2, PS), the target mRNA inhibition (Human Neuronal Cell, 0.2 µM) was 41% and the target mRNA inhibition (Human Neuronal Cell, 1 µM) was 53%.

CTCTTTGTCAAATACT (sugars l4 d10 l2, PS): the target mRNA inhibition is, setting by setting: (Human Neuronal Cell, 0.2 µM) 33%; (Human Neuronal Cell, 1 µM) 13%.

For the sequence TCCATAGAATTCTTCA (sugars l4 d10 l2, PS), the target mRNA inhibition is, setting by setting: (Human Neuronal Cell, 0.2 µM) 51%; (Human Neuronal Cell, 1 µM) 43%.

In the case of CATGACACTTACATAA (sugars l3 d10 l3, PS), the target mRNA inhibition by setting is: (Human Neuronal Cell, 0.2 µM) 31%; (Human Neuronal Cell, 1 µM) 45%.

With “TTTATCAATATCTTCTCAC (sugars lldlllddddddlddddll, PS)”, the target mRNA inhibition (Human Neuronal Cell, 7.5 µM) was determined as 65%.

Take “AAATCTCAACTACCATTTTT (sugars ldddldlddddddldlddll, PS)”: the target mRNA inhibition (Human Neuronal Cell, 7.5 µM) stood at 41%.

Turning to “AAAATCTCAACTACCATTT (sugars ldlldlddddddddlldll, PS)”, the target mRNA inhibition (Human Neuronal Cell, 7.5 µM) was found to be 30%.

“GATCATTCTCAACAATTA (sugars l2 d1 l2 d8 l5, PS)”: the target mRNA inhibition (Human Neuronal Cell, 7.5 µM) worked out at 26%.

Consider “CCTACATCTCATACTTGC (sugars l3 d12 l3, PS)”, for which the target mRNA inhibition is -39% (Human Neuronal Cell, 0.2 µM); -21% (Human Neuronal Cell, 1 µM); -27% (Human Neuronal Cell, 5 µM).

Regarding “TGTTTATACCCTTTCCAA (sugars ldddldddddddddldll, PS)”, under “Human Neuronal Cell, 7.5 µM”, the target mRNA inhibition was 58%.

Consider CCACCTTAAGTAACAT (sugars l3 d10 l3, PS), for which the target mRNA inhibition was determined as 30% (Human Neuronal Cell, 0.2 µM) and 43% (Human Neuronal Cell, 1 µM).

Turning to “GCACATTCTTTCTATACC (sugars ldldlldddddddlddll, PS)”, the target mRNA inhibition (Human Neuronal Cell, 7.5 µM) stood at 54%.

As for “GATCATTCTCAACAATTAA (sugars lldlllddddddlllddll, PS)”, the target mRNA inhibition (Human Neuronal Cell, 7.5 µM) was -2%.

With “CACATTATATTTAAACTAT (sugars l2 d13 l4, PS)”, the target mRNA inhibition reads like this: (Human Neuronal Cell, 0.2 µM) 6%; (Human Neuronal Cell, 1 µM) 14%.

Take TATTGATATTTACTCT (sugars l2 d10 l4, PS): the target mRNA inhibition came out at 30% (Human Neuronal Cell, 0.2 µM) and 38% (Human Neuronal Cell, 1 µM).

Consider “TATCTCATGACCACCTA (sugars l2 d12 l3, PS)”, for which the target mRNA inhibition reads like this: (Human Neuronal Cell, 0.2 µM) 43%; (Human Neuronal Cell, 1 µM) 52%.

On to “AAAATCTCAACTACCATTTT (sugars lllldldddddddlddllll, PS)”, for which, for the setting “Human Neuronal Cell, 7.5 µM”, the target mRNA inhibition is 14%.

As to “CCTACATCTCATACTTG (sugars l3 d11 l3, PS)”, the target mRNA inhibition under setting [1] amounted to 96%.

For “ATTGATTCAATTCCCTT (sugars lddldddddddlldlll, PS)”, the target mRNA inhibition (Human Neuronal Cell, 7.5 µM) is 61%.

As for “CCTACATCTCATACTTG (sugars l2 d13 l2, PS)”, the target mRNA inhibition (Human Neuronal Cell, 0.2 µM) came out at 9%; the target mRNA inhibition (Human Neuronal Cell, 1 µM) amounted to 10%; the target mRNA inhibition (Human Neuronal Cell, 5 µM) stood at 36%; the target mRNA inhibition under setting [1] was 79.8%.

Take ACCACCTAAGACCTCA (sugars l2 d11 l3, PS): the target mRNA inhibition worked out at 45% (Human Neuronal Cell, 0.2 µM) and 44% (Human Neuronal Cell, 1 µM).

“GTTTCCATCTACTATTAA (sugars lllddlddddddldddll, PS)”: the target mRNA inhibition (Human Neuronal Cell, 7.5 µM) was determined as 47%.

In the case of “TCTTTCCATTTATTTCCATT (sugars l2 d13 l1 d2 l2, PS)”, for the setting “Human Neuronal Cell, 7.5 µM”, the target mRNA inhibition is 42%.

With “GTTTCCATCTACTATTAA (sugars l3 d1 l1 d9 l4, PS)”, the target mRNA inhibition (Human Neuronal Cell, 7.5 µM) amounted to 55%.

Regarding “ATCATTCTCAACAATTAAA (sugars l4 d1 l1 d8 l5, PS)”, the target mRNA inhibition (Human Neuronal Cell, 7.5 µM) turned out to be 49%.

Turning to “AAGATCATTCTCAACAAT (sugars lllldlddddddldllll, PS)”, the target mRNA inhibition (Human Neuronal Cell, 7.5 µM) was -6%.

As to “CTAACTGTTTCTCAATT (sugars l3 d11 l3, PS)”, the target mRNA inhibition was found to be 29% (Human Neuronal Cell, 0.2 µM) and 32% (Human Neuronal Cell, 1 µM).

For “GTTTATACCCTTTCCAAT (sugars ldddlddddddddldlll, PS)”, under “Human Neuronal Cell, 7.5 µM”, the target mRNA inhibition was 56%.

As to TCTTCAAGAATTCTCT (sugars l2 d10 l4, PS), the target mRNA inhibition is, setting by setting: (Human Neuronal Cell, 0.2 µM) 44%; (Human Neuronal Cell, 1 µM) 46%.

With TACATCTCATACTTGC (sugars l2 d11 l3, PS), under setting [1], the target mRNA inhibition turned out to be 96.5%.

For “TTATAGCCATTCTATCT (sugars l2 d1 l1 d11 l2, PS)”, the target mRNA inhibition (Human Neuronal Cell, 7.5 µM) amounted to 62%.

Regarding “AAGATCATTCTCAACAAT (sugars l2 d2 l2 d6 l6, PS)”, the target mRNA inhibition (Human Neuronal Cell, 7.5 µM) came to 47%.

Consider “TACACAAATACTTAAATCA (sugars l4 d13 l2, PS)”, for which the target mRNA inhibition (Human Neuronal Cell, 0.2 µM) was 7% and the target mRNA inhibition (Human Neuronal Cell, 1 µM) turned out to be 19%.

As to “AAAATCTCAACTACCATTTT (sugars ldllddldddddddllddll, PS)”, the target mRNA inhibition (Human Neuronal Cell, 7.5 µM) is 5%.

Consider “AAATTTCTCAACCTAAATTT (sugars l2 d14 l4, PS)”, for which the target mRNA inhibition is -9% (Human Neuronal Cell, 0.2 µM) and 2% (Human Neuronal Cell, 1 µM).

As to “TTTATTTCCATTTATTTTCA (sugars ldddlldddddddddlldll, PS)”, the target mRNA inhibition (Human Neuronal Cell, 7.5 µM) came out at 65%.

“AAACTTTCCCAACATTAT (sugars l2 d12 l4, PS)”: the target mRNA inhibition by setting is: (Human Neuronal Cell, 0.2 µM) 35%; (Human Neuronal Cell, 1 µM) 49%.

Turning to “CTCAAAGATCATTCTCA (sugars l1 d2 l1 d7 l6, PS)”, for the setting “Human Neuronal Cell, 7.5 µM”, the target mRNA inhibition stood at 16%.

Turning to “TTTATTTCCATTTATTTTC (sugars ldldlddddddddlldlll, PS)”, the target mRNA inhibition (Human Neuronal Cell, 7.5 µM) came to 53%.
